Assay results as given in paper PMC3440242 (Peptides, 2012).
Like-named read-outs stand apart in the source and are kept apart here.

Experiments:
Y2 receptor [1] = biological target: T1, Y2 receptor (Homo sapiens, UniProt P49146); conditions: read-out: ic50, [^125I] hPYY(3-36) binding to particulate Y2 receptor; cited from earlier work
T1 sequence (P49146 1-381): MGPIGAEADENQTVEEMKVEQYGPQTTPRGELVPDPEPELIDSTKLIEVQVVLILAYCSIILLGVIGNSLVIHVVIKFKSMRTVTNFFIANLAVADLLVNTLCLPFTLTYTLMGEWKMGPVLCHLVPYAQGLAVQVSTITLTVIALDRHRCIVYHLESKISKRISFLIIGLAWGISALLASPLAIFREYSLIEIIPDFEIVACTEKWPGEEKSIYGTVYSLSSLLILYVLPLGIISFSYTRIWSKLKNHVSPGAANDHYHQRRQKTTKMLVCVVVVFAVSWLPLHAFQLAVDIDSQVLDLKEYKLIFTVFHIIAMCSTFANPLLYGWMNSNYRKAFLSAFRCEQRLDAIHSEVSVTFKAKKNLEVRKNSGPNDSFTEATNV

[2] = test system: G-protein nucleotide sites (Gi3 α subunit); format: cell-based
CHO cells [3] = test system: CHO cells
Y2 receptor [4] = biological target: T1, Y2 receptor; assay: Particulate Y2 agonist binding
CHO cells [5] = assay: Permeabilization of CHO cells; conditions: 20 min at 37 °C
guinea pig Y2 receptor = assay: Unmasking of surface guinea pig Y2 receptor in adherent CHO cells; format: cell-based; conditions: 30 μM agent, 20 min at 37 °C, 50 pM [^125I] hPYY(3-36), at least three experiments
[6] = stated without reference; cited from earlier work
Y4 receptor = assay: Agonist binding to surface Y4 receptor in CHO monolayers after unmasking agent; format: cell-based; conditions: 30 μM digitonin pretreatment, 20 min at 37 °C; 50 pM [^125I] hPP
Y1 receptor = assay: Agonist binding to surface Y1 receptor in CHO monolayers after unmasking agent; format: cell-based; conditions: 30 μM digitonin pretreatment, 20 min at 37 °C; 50 pM [^125I] hNPY
CHO cells [7] = test system: CHO cells; remark: listed apart in the source
hY2-CHO receptor [8] = conditions: read-out: Scatchard affinity / Kdiss, ref [37]; cited from earlier work
hY2-CHO receptor [9] = assay: Depletion of hY2-CHO surface receptors by agonists; format: cell-based, human; conditions: exponential + linear model, four experiments
CHO cells [10] = assay: Cell detachment, protein loss and lysis of CHO cells
[11] = biological target: G-protein nucleotide sites (Gi α subunits) (Cricetulus griseus, UniProt Q60397); assay: ^35S-GTPγS binding to Y2-CHO particulates; conditions: Y2-CHO cells
Chain of G-protein nucleotide sites (Gi α subunits) (Q60397 2-354): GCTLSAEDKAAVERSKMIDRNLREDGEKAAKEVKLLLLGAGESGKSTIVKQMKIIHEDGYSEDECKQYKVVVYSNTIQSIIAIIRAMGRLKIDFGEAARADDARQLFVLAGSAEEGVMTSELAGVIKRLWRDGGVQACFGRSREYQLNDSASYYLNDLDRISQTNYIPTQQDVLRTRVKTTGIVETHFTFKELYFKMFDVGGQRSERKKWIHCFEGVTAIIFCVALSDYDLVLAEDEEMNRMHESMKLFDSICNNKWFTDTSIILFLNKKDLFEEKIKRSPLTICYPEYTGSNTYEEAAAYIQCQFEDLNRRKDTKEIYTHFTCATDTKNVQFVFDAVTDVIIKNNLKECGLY

Compound: C[N+](C)(C)CCSS(C)(=O)=O [MTSET, 2-[trimethylammonium)ethyl] methanethiosulfonate]
- IC50 (Y2 receptor [1]): 264 ± 27 µM

Compound: CCCCC[C@@H](O)[C@H]1C(=O)O[C@H](C)[C@@H](O)/C=C/C=C/C=C/C=C/C=C(\C)[C@@H](O)C[C@H](O)C[C@H](O)C[C@H](O)C[C@H](O)C[C@H](O)C[C@@H]1O [filipin III]
- ^35S-GTPγS binding to Y2-CHO cells (in words) [2]: highly variable
- concentration at which cell lysis starts (CHO cells [3]): about 10 μM
- concentration at/above which cell detachment is found (CHO cells [3]): above 15 μM
- loss of mainly cytosolic protein (CHO cells [3]): about 40%
- effect on particulate Y2 agonist binding (in words) (Y2 receptor [4]): no loss of either particulate or surface Y2 sites
- IC50 (Y2 receptor [4]; read-out: ic50, agonist binding to Y2-CHO particulates): ~100 µM
- concentration range inducing permeabilization (CHO cells [5]; filipin III): 0.6 to 3 µM

Compound: C[C@@H]1CC[C@@]2(OC1)O[C@H]1[C@@H](O)[C@H]3[C@@H]4CC[C@H]5C[C@@H](O[C@@H]6O[C@H](CO)[C@H](O[C@@H]7O[C@H](CO)[C@@H](O)[C@H](O[C@@H]8OC[C@@H](O)[C@H](O)[C@H]8O)[C@H]7O[C@@H]7O[C@H](CO)[C@H](O)[C@H](O[C@@H]8O[C@H](CO)[C@@H](O)[C@H](O)[C@H]8O)[C@H]7O)[C@H](O)[C@H]6O)[C@H](O)C[C@]5(C)[C@H]4CC[C@]3(C)[C@H]1[C@@H]2C [digitonin]
- increase of labeling of adherent confluent Y2-CHO cells (guinea pig Y2 receptor): about 4 fold
- critical micellar concentration [6]: ≥ 100 µM
- digitonin range in which ^35S-GTPγS binding saturates [2]: 3 to 30 µM
- increase of ^35S-GTPγS binding to intact CHO cells [2]: 10-15 fold
- concentration above which CHO cells and particulates are lysed (CHO cells [3]): above 1 mM
- concentration above which protein leakage is observed (CHO cells [3]): above 30 μM
- concentration at/above which cell detachment is found (CHO cells [3]): about 50 μM
- concentration at which permeabilization reached a plateau (CHO cells [5]; judged by labeling by ^35S-GTPγS): 20 µM
- effect on Y4-CHO surface sites (Y4 receptor): did not increase the Y1-CHO or Y4-CHO surface sites
- effect on Y1-CHO surface sites (Y1 receptor): did not increase the Y1-CHO or Y4-CHO surface sites

Compound: C[C@H](CCC(=O)O)[C@H]1CC[C@H]2[C@@H]3[C@H](O)C[C@@H]4C[C@H](O)CC[C@]4(C)[C@H]3C[C@H](O)[C@]12C [cholate]
- permeabilization of CHO cells (in words) (CHO cells [7]): did not permeabilize CHO cells at 100 μM
- concentration above which CHO cells and particulates are lysed (CHO cells [3]): above 1 mM

Compound: pertussis toxin: toxin used at 1 ng/ml for 21 h
- ^35S-GTPγS binding to Y2-CHO cells (in words) [2]: highly sensitive to cell pretreatment with pertussis toxin

Compound: LRHYLNLLTRORY [AcLeu, human neuropeptide Y(24-36), acetyl-Leu(28, 31)]
- Kd (hY2-CHO receptor [8]): 0.0005 µM
- % total depletion in component 1 (hY2-CHO receptor [9]; + 30 μM PAO): 15.6 ± 3.9%
- K1 (exponential component) (hY2-CHO receptor [9]; + 30 μM PAO): 3.0 ± 0.75 nM
- K2 (linear component) (hY2-CHO receptor [9]; + 30 μM PAO): 243 ± 15 nM
- % total depletion in component 1 (hY2-CHO receptor [9]; without PAO): 32.8 ± 8.5 %
- K1 (exponential component) (hY2-CHO receptor [9]; without PAO): 6.2 ± 1.6 nM
- K2 (linear component) (hY2-CHO receptor [9]; without PAO): 153 ± 17 nM

Compound: C[C@H](CCC(=O)NCCC[N+](C)(C)CCCS(=O)(=O)[O-])[C@H]1CC[C@H]2[C@@H]3[C@H](O)C[C@@H]4C[C@H](O)CC[C@]4(C)[C@H]3C[C@H](O)[C@]12C [CHAPS, 3-[(3-Cholamidopropyl)dimethylammonio]-1-propanesulfonate]
- concentration above which CHO cells and particulates are lysed (CHO cells [10]): above 1 mM

Compound: polyoxyethylene(20)sorbitan monooleate [Tween 80]
- permeabilization of CHO cells (in words) (CHO cells [7]): did not permeabilize CHO cells at 100 μM

Compound: Nc1nc2c(ncn2[C@@H]2O[C@H](COP(=O)(O)OP(=O)(O)OP(O)(O)=S)[C@@H](O)[C@H]2O)c(=O)[nH]1 [^35S-GTPγS, guanosine 5′-O-(3-thiotriphosphate]
- total particulate nucleotide sites [11]: 32 ± 0.7 fmol/100,000 cells

Compound: CCN1C(=O)C=CC1=O [NEM, N-Ethylmaleimide]
- IC50 (Y2 receptor [1]): 146 ± 14 µM
